B1: IFNγ: interferon-γ used to stimulate prostate cell lines, 100 U/ml (protein, UniProt P01579 24-161, looked up)
Interferon gamma: QDPYVKEAENLKKYFNAGHSDVADNGTLFLGILKNWKEESDRKIMQSQIVSFYFKLFKNFKDDQSIQKSVETIKEDMNVKFFNSNKKKRDDFEKLTNYSVTDLNVQRKAIHELIQVMAELSPAAKTGKRKRSQMLFRG

Key:
TZ BPH prostate tissue = experiment: Microarray gene expression in TZ BPH nodular tissue of drug treated patients, dChip/ANOVA analysis (Table 11); type: in vivo, human; details: for expression of the five markers MIG (CXCL9), IP 10 (CXCL10), I-TAC (CXCL11), Contactin-1 (CNTN1), Dickkopf-3 (DKK3): TZ BPH tissue from treated patients versus untreated BPH tissue
Source text: In specific embodiments of the present invention, the inventors employed the exemplary Affymetrix U133 Plus 2.0 whole genome microarrays to profile gene expression in the transition zone (TZ) of small (≦30 g) and big (≧70 g) prostates. In addition, they also profiled gene expression changes in TZ benign prostatic hyperplasia (BPH) tissue from patients treated with α1-receptor blockade (tamsulosin), 5α-reductase type II inhibition (finasteride), or both medications combined. Integrating the results from these profiles led to the discovery of 5 exemplary polynucleotides that in specific embodiments are diagnostic and/or prognostic biomarkers for BPH. These exemplary markers include the three interferon inducible pro-inflammatory chemokines, MIG (CXCL9), IP 10 (CXCL10), and I-TAC (CXCL11), the adhesion molecule Contactin-1 (CNTN1), the Wnt pathway signaling inhibitor Dickkopf-3 (DKK3), and any combination thereof. […] In further specific embodiments, the mechanisms by which these inflammatory BPH markers are induced and their influence on prostate hyperplasia is determined.
To address the second specific embodiment, patients awaiting radical prostatectomy were given a standard therapeutic course of tamsulosin, finasteride or both tamsulosin and finasteride for 2, 4, or 6 weeks prior to surgery. TZ BPH nodular tissue was isolated post surgery. Total RNA was purified from 24 samples from individual patients and analyzed using Affymetrix U133 Plus 2.0 microarrays. Of the 24 arrays run on drug treated patient prostates, 7 were ultimately excluded from the final analysis due poor signal quality within the arrays.
Expression levels from drug treated prostate tissue were analyzed with dChip. Comparison of changes in gene expression between drugs and between time of therapy was performed by ANOVA. This initial analysis yielded 3568 genes with significant a difference (p≦0.01) in at least 1 comparison. […] Genes regulated by drug treatment were grouped by pathway or common function and those showing multiple changes in expression are shown in Table 11.

prostate RNA samples = experiment: Real-time quantitative RT-PCR validation in prostate samples from drug treated patients; type: in vivo, human; details: BPH nodules, drug treatment versus no drug
Protocol: To further refine the list of genes profiled in the microarray studies, the differential expression of 30 of these genes were tested by real-time quantitative RT-PCR (Q-RT-PCR). Since Q-RT-PCR is based on the detection of small amplimers (80-150 base pairs) it. is less affected by RNA degradation than microarrays. This allowed the inventors to used a larger sample set of prostate RNA than were included in the microarray analyses. The inventors tested […] small and 10 big prostate samples (including the 15 samples from the array analysis) and 24 samples from drug treated patients (10 treated with finasteride, 7 treated with tamsulosin, and 7 treated with both drugs). Individual comparisons were made between small and big prostates and between no drug (all 18 small and big samples) and drug treatments for each therapy drug condition without consideration of the treatment duration. Several groups of genes validated with significant differences by Q-RT-PCR between small and big prostate and/or those regulated by at least one drug treatment. The three pro-inflammatory chemokines CXCL9 (MIG), CXCL10 (IP-10), and CXCL11 (I-TAC) are best known for production by monocytes as chemotactic agents for T cells (Kim and Broxmeyer, 1999). […]

[1] = tested on: prostate transition zone tissue; experiment: Microarray (Affymetrix U133 Plus 2.0) gene expression in prostates of patients treated with finasteride, tamsulosin or both before radical prostatectomy (Table 7); type: in vivo, human; details: patients treated 2, 4 or 6 weeks before prostatectomy; minus sign = down regulation
Protocol: In non-limiting exemplary embodiments of the invention, a randomized, open-label, single-center study was performed to determine the spatio-temporal changes in gene expression within the prostate of patients who receive 0.4 mg of Flomax® (tamsulosin) capsules daily, 5 mg of Proscar® (finasteride) tablets daily, or both for either 6, 4, or 2 weeks prior to radical prostatectomy. Tissue samples from radical prostatectomy specimens were obtained under an ongoing IRB-approved protocol (H-1158). Zone-specific tissue samples from patients undergoing radical prostatectomy for clinically localized prostate cancer were harvested and frozen in liquid nitrogen for later analysis. In addition to prostate cancer tissue samples, samples from the transition zone from these patients have also been harvested. Participants were randomly allocated to one of three drug treatment arms, after being categorized into one of three groups according to the duration from enrollment date to scheduled surgery date. BPH related symptoms were assessed using self-administered BPH symptom questionnaires at day of enrollment and every 2 weeks (no clinic visit required) until surgery. Medication compliance is assessed at the time of radical prostatectomy. FIG. 1 illustrates an exemplary randomized block design with variable block size for randomly assigning participants to nine treatment groups. After standard quality control analysis of extracted mRNA, 20 samples from patient prostates treated with either finasteride, tamsulosin, or both drugs together for 2, 4, or 6 weeks, were subjected to microarray chip hybridization (in conjunction with the Baylor College of Medicine Microarray Core Facility). In Table 6, patients were treated with the 5-alpha reductase inhibitor, Finasteride (FIN), or the alpha-1 adrenergic receptor antagonist, Tamsulosin (TAM), or both drugs together (FIN+TAM) for the times indicated prior to prostatectomy. Samples were used in Affymetrix U133 Plus 2.0 microarray analysis as shown. Through this analysis, a number of genes (listed in Table 7) were identified whose expression was modulated by drug treatment. These genes are associated with inflammatory pathways (an exemplary embodiment of which is provided in FIG. 2), Wnt signaling pathway (an exemplary embodiment of which is provided in FIG. 3); cell signaling and cell cycle regulatory pathway (an exemplary embodiment of which is provided in FIG. 4), or extracellular matrix remodeling. Although several of these genes have previously been implicated in prostate cancer progression, they have not been described in connection with progression of BPH or in connection with the exemplary drug treatment regimes described above. In Table 7, there are polynucleotides showing 1.3-77 fold changes in expression level after drug treatment. Down regulation after drug treatment is signified by “-” in front of the fold change. In particular embodiments, the information may be obtained at particular timepoints following the onset of therapy, such as about 1 day, 2 days, 3 days, 4 days, 5 days, 6 days, 1 week, 2 weeks, 3 weeks, 4 weeks, 5 weeks, 6 weeks, 7 weeks, 8 weeks, or combinations thereof, or more or less, for example. In the specific embodiments wherein more than one timepoint is evaluated, an average of the timepoints may be obtained.

[2] = tested on: hyperplastic prostatic tissue; details: cited from earlier work
prostate cell lines [3] = experiment: Induction of potential BPH markers in prostate cell lines cultured with androgen or inflammatory agents; type: cell-based, human; details: non-cancer prostate cell lines cultured in the presence of the agent
Protocol: To confirm the expression of CXCL9, 10 and 11, contactin 1 and CXCR3 in prostate tissue, the present inventors examined several non-cancer prostate cell lines for these markers. The prostate epithelial cells RWPE-1 and PWR-1E are androgen responsive nomal or hyperplastic cells transformed with HPV1828, 29. The epithelial cell line BPH 130 is originated from BPH tissue transformed with SV40 T antigen. […] Cells were cultured in their prescribed media and were fixed, permeabilized and stained by standard methods and analyzed by single color flow cytometry. […] To determine if prostate cell expression of CXCL chemokines was responsive to interferon stimulation, stromal and epithelial cell lines were cultured in the presence of IFNγ. Chemokine induction was measured by Q-RT-PCR and is shown as fold induction over basal expression in untreated cells (FIG. 12).

prostate cell lines [4] = type: cell-based, human; details: 4 prostate cell lines, with or without 100 U/ml IFNγ, Q-RT-PCR
Protocol: 4 prostate cell lines were cultured in media with or without 100 U/ml IFNγ. Chemokine expression was determined by Q-RT-PCR and induction calculated using the 2^−ΔΔCt method compared to untreated cells.
To confirm the expression of CXCL9, 10 and 11, contactin 1 and CXCR3 in prostate tissue, the present inventors examined several non-cancer prostate cell lines for these markers. The prostate epithelial cells RWPE-1 and PWR-1E are androgen responsive nomal or hyperplastic cells transformed with HPV1828, 29. The epithelial cell line BPH 130 is originated from BPH tissue transformed with SV40 T antigen. The cell lines HTS-2T and HPS-19B are primary prostate stromal cell lines from TZ and PZ, respectively (Singh et al., 2004). Cells were cultured in their prescribed media and were fixed, permeabilized and stained by standard methods and analyzed by single color flow cytometry. The chemokines CXCL9, 10 and 11 were present in all cells tested as was contactin 1 (FIG. 11). DKK3 was not tested for lack of a suitable antibody for flow cytometric analysis. CXCR3 was highly expressed in all the cells. […] Chemokine induction was measured by Q-RT-PCR and is shown as fold induction over basal expression in untreated cells (FIG. 12). […]

[5] = treatment with drug between 2 and 6 weeks, TZ BPH tissue

| Molecule | expression of the five markers MIG (CXCL9), IP 10 (CXCL10), I-TAC (CXCL11), Contactin-1 (CNTN1), Dickkopf-3 (DKK3) (TZ BPH prostate tissue) | CKTSF1B1 (Gremlin) differential gene expression (TZ BPH prostate tissue; [5]) [fold] | CXCL9 differential gene expression (TZ BPH prostate tissue; [5]) [fold] | HLA-DP differential gene expression (TZ BPH prostate tissue; [5]) [fold] | HS3ST3B1 differential gene expression (TZ BPH prostate tissue; [5]) [fold] | ORM1 differential gene expression (TZ BPH prostate tissue; [5]) [fold] | VEGF differential gene expression (TZ BPH prostate tissue; [5]) [fold] | WIF1 differential gene expression (TZ BPH prostate tissue; [5]) [fold] | expression of chemokines CXCL9 (MIG), CXCL10 (IP-10), CXCL11 (I-TAC) (prostate RNA samples) | CKTSF1B1 (Gremlin) expression fold change after drug treatment [1] [fold] | CXCL9 expression fold change after drug treatment [1] [fold] | CXCL10 expression fold change after drug treatment [1] [fold] | CXCL11 expression fold change after drug treatment [1] [fold] | CyclophilinC expression fold change after drug treatment [1] [fold] | Frizzled 10 expression fold change after drug treatment [1] [fold] | HLA-DP expression fold change after drug treatment [1] [fold] | HS3ST3B1 expression fold change after drug treatment [1] [fold] | ORM1 expression fold change after drug treatment [1] [fold] | VEGF expression fold change after drug treatment [1] [fold] | WIF1 expression fold change after drug treatment [1] [fold] | other results |
| --- | --- | --- | --- | --- | --- | --- | --- | --- | --- | --- | --- | --- | --- | --- | --- | --- | --- | --- | --- | --- | --- |
| CC(C)(C)NC(=O)[C@H]1CC[C@H]2[C@@H]3CC[C@H]4NC(=O)C=C[C@]4(C)[C@H]3CC[C@]12C [Finasteride, finasteride] | decreased | −4.10 | −3.61 | −2.29 | −2.29 | 2.38 | −2.15 | −7.53 | decreased | −4.10 | −2.85 | −2.01 | −2.62 | −2.52 | −2.45 | −2.29 | −2.29 | 2.38 | −2.15 | −7.53 | CTNNB1 differential gene expression (TZ BPH prostate tissue; [5]): 2.26 fold; Frizzled 10 differential gene expression (TZ BPH prostate tissue; [5]): −2.45 fold; KLK4 differential gene expression (TZ BPH prostate tissue; [5]): −3.47 fold; DKK3 expression fold change after drug treatment [1]: −2.28 fold; KLK4 expression fold change after drug treatment [1]: −3.47 fold; SPROUTY2 expression fold change after drug treatment [1]: −1.94 fold; ZNF36 expression fold change after drug treatment [1]: −1.55 fold; reduction of prostate growth ([2]; over the first year, without recurrance of significant prostatic growth): ≤ 20% |
| C[C@]1(O)CC[C@H]2[C@@H]3CCC4=CC(=O)CCC4=C3C=C[C@@]21C [R1881] | – | – | – | – | – | – | – | – | – | – | – | – | – | – | – | – | – | – | – | – | changes in BPH marker expression (CXCL9, 10, 11, contactin 1, CXCR3) (prostate cell lines [3]): No changes |
| CCOc1ccccc1OCCN[C@H](C)Cc1ccc(OC)c(S(N)(=O)=O)c1 [Tamsulosin, tamsulosin] | decreased | −4.76 | −2.86 | −2.33 | −2.20 | 76.96 | −2.01 | −4.60 | decreased | −4.76 | −3.37 | −4.65 | −5.81 | −1.87 | −1.82 | −2.33 | −2.20 | 76.96 | −2.01 | −4.60 | DKK3 differential gene expression (TZ BPH prostate tissue; [5]): −2.85 fold; Cbl-b expression fold change after drug treatment [1]: 1.30 fold; Dicer 1 expression fold change after drug treatment [1]: 1.30 fold |
| COc1cc2nc(N3CCN(C(=O)C4COc5ccccc5O4)CC3)nc(N)c2cc1OC (stereo not shown) [doxazosin] | – | – | – | – | – | – | – | – | – | – | – | – | – | – | – | – | – | – | – | – | apoptosis in the stromal compartment of hyperplastic prostatic tissue ([2]; alpha blockade): increases; overall re-occurrence rate of BPH ([2]; alpha blockade): does not decrease |
| B1 | – | – | – | – | – | – | – | – | – | – | – | – | – | – | – | – | – | – | – | – | CXCL chemokine expression in prostate cells (prostate cell lines [4]): up-regulated |

Source: patent US20060194230A1, “Genetic markers associated with benign prostatic hyperplasia” (BAYLOR COLLEGE OF MEDICINE, priority 2005, published 2006)
